Values after ≈ are worked out from the molar mass of the structure shown. Each block holds one compound with its values, some of them ahead of it.
Assays:
IDO1 = biological target: T1, IDO1 (Homo sapiens, UniProt P14902); assay: Enzyme-based IDO1 activity assay; type: biochemical; details: for IC50 / Enzymatic assay IC50 (hIDO1): purified human IDO1 enzyme; for IC50: read-out: Enzymatic assay IC50 (hIDO1); for Inhibition ratio (%) @10 μM: 10 μM compound, purified recombinant IDO1
T1 construct: made in house

SKOV3 = system: SKOV3; parameters: method as in earlier work; details: Figure 1, literature values; 27 (4), 28 (5); cited from earlier work
HeLa (IDO1) = HeLa (IDO1) (Homo sapiens, UniProt P14902); assay: Cell-based IDO1 activity assay (HeLa kynurenine assay); details: IFN-γ stimulated HeLa cells; for EC50: 24 h, read-out: Cellular assay EC50 HeLa (IDO1); for Hill slope of the curves (cellular dose response): Figure 9
Experimental: After incubation for 24 h, 140 µL of supernatant was mixed with 10 µL of 6.1 N trichloroacetic acid and the mixture was incubated for 30 min at 60 °C. The reaction mixture was then centrifuged for 20 min at 4000 rpm at 0 °C to remove sediments. About 100 µL of the supernatant was mixed with 100 µL of 2% (w/v) p-DMAB in acetic acid and measured at 480 nm. The final DMSO concentration was 0.5%. The data were analysed using Graphpad Prism 6.
The HeLa-based cellular assay is informative for drug development, as it evaluates not only the IDO1 inhibitory effect of the compounds but also their capacity to permeate the cell, their inhibition of tryptophan and kynurenine transport and their potential cytotoxicity. […] In addition, since the inhibition of tryptophan degradation could simply be an effect of cytotoxicity, thus the determination of cell viability was necessary when reporting cellular IC50 values. In the initial work, all of the screened compounds were determined for their cell viability using the classical MTT assy.

HeLa = details: Figure 1, literature value; cited from earlier work
[1] = Water solubility evaluation (Avdeef–Bucher potentiometric titration); type: physicochemical; details: thermodynamic from solid
Experimental: The aqueous solubility was determined on a Gemini Profiler instrument (pION) by the “goldstandard” Avdeef–Bucher potentiometric titration method[46]^,[47].

T1 sequence (P14902 whole entry): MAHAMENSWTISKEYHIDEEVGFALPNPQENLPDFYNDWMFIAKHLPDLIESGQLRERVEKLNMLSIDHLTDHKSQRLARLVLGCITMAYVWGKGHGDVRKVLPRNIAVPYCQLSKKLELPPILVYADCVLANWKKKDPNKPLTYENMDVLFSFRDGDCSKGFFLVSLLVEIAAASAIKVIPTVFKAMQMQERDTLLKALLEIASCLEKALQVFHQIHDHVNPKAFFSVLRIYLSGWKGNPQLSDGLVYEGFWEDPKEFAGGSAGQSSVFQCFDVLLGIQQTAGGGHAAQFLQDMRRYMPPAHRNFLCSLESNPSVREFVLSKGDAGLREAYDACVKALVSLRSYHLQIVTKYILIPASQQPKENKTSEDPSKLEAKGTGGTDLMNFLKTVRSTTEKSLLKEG
Chain of HeLa (IDO1) (P14902 whole entry): as above

IC50 (IDO1): 54.7 ± 4.7 µM
Compound: N#Cc1c(C(F)(F)F)cc(-c2cccs2)nc1SCC(=O)Nc1ccc(F)cc1 [LVS-037]

Inhibition ratio (%) @10 μM (IDO1): 9.91 ± 0.65%
Compound: Cc1ccc(C(=O)CC2(O)C(=O)N(C)c3ccccc32)cc1 (stereo not shown) [LVS-029]

IC50 (IDO1): 38.5 ± 6.09 µM
Compound: COc1cccc(-c2ccc(C#N)c(SCC(=O)Nc3ccccc3Cl)n2)c1 [LVS-042]

IC50 (IDO1): 18.4 ± 2.31 µM
Compound: O=[N+]([O-])c1ccc(Oc2nsnc2N2CCOCC2)cc1 [LVS-018]

Enzymatic assay IC50 (hIDO1) (IDO1): Not Converged
Compound: Cc1nc(SCC(=O)Nc2sc3c(c2C#N)CCC3)c(C#N)c(C)c1C [LVS-046]

Inhibition ratio (%) @10 μM (IDO1): 4.31 ± 0.04%
Compound: COc1cccc(NC(=O)CSc2nc(N)c(C#N)cc2C#N)c1 [LVS-008]

Enzymatic assay IC50 (hIDO1) (IDO1): Not Converged
Compound: Cc1cc(C)c(C#N)c(SCC(=O)Nc2nccs2)n1 [LVS-055]

Inhibition ratio (%) @10 μM (IDO1): 14.15 ± 0.38%
Compound: O=S(=O)(c1cccc2cccc(Cl)c12)N1CCCC1 [LVS-013]

Enzymatic assay IC50 (hIDO1) (IDO1): Not Converged
Compound: CN1CCc2nc(SCC(=O)Nc3ccccc3)c(C#N)cc2C1 [LVS-054]

IC50 (IDO1): 10.4 ± 1.01 µM
Compound: Sc1nnc(-c2csc3c2CCCC3)n1Cc1ccccc1 [LVS-032]

IC50 (IDO1): 8.76 ± 1.74 µM
EC50 (HeLa (IDO1)): 9.4 ± 0.07 µM
Hill slope of the curves (cellular dose response) (HeLa (IDO1)): 0.70
Compound: Cc1cc(C(F)(F)F)nc(SCC(=O)Nc2sc3c(c2C#N)CCC3)c1C#N [LVS-048]

Enzymatic assay IC50 (hIDO1) (IDO1): Not Converged
Compound: COc1cc2c(cc1OC)CN(C(=O)CSc1nc(C)cc(C)c1C#N)CC2 [LVS-051]

IC50 (IDO1): 26 ± 9.64 µM
Compound: Cc1cc(C)c(C#N)c(SCC(=O)Nc2sc3c(c2C#N)CCC3)n1 [LVS-045]

IC50 (IDO1): 55.1 ± 10.1 µM
Compound: COc1cccc(-c2ccc(C#N)c(SCC(=O)Nc3cccc(C)c3)n2)c1 [LVS-041]

Inhibition ratio (%) @10 μM (IDO1): 9.65 ± 0.09%
Compound: O=c1c2c(-c3ccc([N+](=O)[O-])cc3)csc2nc2n1CCC2 [LVS-004]

IC50 (IDO1): 2.57 ± 0.42 µM
EC50 (HeLa (IDO1)): 3.42 ± 0.56 µM
Hill slope of the curves (cellular dose response) (HeLa (IDO1)): 0.69
Compound: Cc1cc(C)c(C#N)c(SCC(=O)Nc2ccc(Cl)c(Cl)c2)n1 [LVS-039]

Inhibition ratio (%) @10 μM (IDO1): 21.29 ± 0.22%
Compound: O=C(CS(=O)(=O)c1ccccc1)Nc1ccc(Br)cn1 [LVS-022]

IC50 (IDO1): 21.2 ± 7.1 µM
Compound: CCc1nc(SCC(=O)Nc2sc3c(c2C#N)CCC3)c(C#N)cc1C [LVS-047]

Inhibition ratio (%) @10 μM (IDO1): 11.62 ± 1.19%
Compound: Cc1ccc(NC(=O)COc2ccccc2CO)cc1 [LVS-014]

Inhibition ratio (%) @10 μM (IDO1): 0.11 ± 1.98%
Compound: COc1ccccc1-c1cc(C(=O)O)c2ccccc2n1 [LVS-020]

IC50 (IDO1): 2.64 ± 0.94 µM
EC50 (HeLa (IDO1)): 7.68 ± 0.27 µM
Hill slope of the curves (cellular dose response) (HeLa (IDO1)): 1.11
Compound: CC(C)c1ccc(C#N)c(SCC(=O)Nc2ccc(F)cc2)n1 [LVS-019]

IC50 (IDO1): 66.2 ± 14.3 µM
Compound: N#Cc1c(C(F)(F)F)cc(-c2cccs2)nc1SCC(=O)Nc1ccc2ccccc2c1 [LVS-034]

Inhibition ratio (%) @10 μM (IDO1): 3.37 ± 0.04%
Compound: O=S(=O)(NC1CCCc2ccccc21)c1ccc(Br)cc1 (stereo not shown) [LVS-027]

Inhibition ratio (%) @10 μM (IDO1): 30.73 ± 0.93%
Compound: O=C(CSc1nnc2scc(-c3ccc(Cl)cc3)n12)Nc1ccc(F)cc1 [LVS-005]

IC50 (IDO1): 78.7 ± 8.46 µM
Compound: Cc1cc(C)c(C#N)c(SCC(=O)Nc2sc(C)c(C)c2C#N)n1 [LVS-036]

Enzymatic assay IC50 (hIDO1) (IDO1): Not Converged
Compound: Cc1cc(C)c(C#N)c(SCC(=O)Nc2cccc(C)c2C)n1 [LVS-038]

Inhibition ratio (%) @10 μM (IDO1): 11.05 ± 0.02%
Compound: CCOc1ccc(/C=c2\sc3nnc(-c4ccccc4Cl)n3c2=O)cc1 [LVS-015]

Inhibition ratio (%) @10 μM (IDO1): 2.00 ± 0.28%
Compound: O=C(Cn1nnnc1-c1ccccc1)c1ccc(Br)cc1 [LVS-030]

IC50 (IDO1): 8.08 ± 1.3 µM
Compound: Cn1c(COc2ccccc2)c(C#N)c2ccccc21 [LVS-002]

IC50 (IDO1): 27.6 ± 6.82 µM
Compound: COCc1cc(C)nc(SCC(=O)Nc2ccc(C)c(C)c2)c1C#N [LVS-035]

Enzymatic assay IC50 (hIDO1) (IDO1): Not Converged
Compound: CN1CCc2nc(SCC(=O)Nc3sc4c(c3C#N)CCCC4)c(C#N)cc2C1 [LVS-050]

IC50 (IDO1): 14.2 ± 1.43 µM
Compound: Cc1sc2nc(SCC(=O)c3ccc(F)cc3)n(N)c(=O)c2c1C [LVS-001]

Inhibition ratio (%) @10 μM (IDO1): 10.22 ± 1.11%
Compound: Cn1c(=O)c(Sc2ccc(Cl)cc2)c(O)c2ccccc21 [LVS-023]

IC50 (IDO1): 36.6 ± 5.46 µM
Compound: CCN(CC)C(=O)CSc1nc(C)cc(C)c1C#N [LVS-033]

IC50 (IDO1): 21.7 ± 3.18 µM
Compound: N#Cc1cc2c(nc1SCC(=O)Nc1nccs1)CCCCC2 [LVS-043]

IC50 (IDO1): 1.38 ± 0.57 µM
Compound: Cc1cc(C(F)(F)F)c(C#N)c(SCC(=O)Nc2ncc(Br)cc2Br)n1 [LVS-052]

IC50 (IDO1): 14.8 ± 3.14 µM
Compound: N#Cc1cc2c(nc1SCC(=O)Nc1sc3c(c1C#N)CCCC3)CCCCCC2 [LVS-049]

IC50 (IDO1): 74.7 ± 15.2 µM
Compound: COc1ccc(-c2ccc(C#N)c(SCC(=O)Nc3ccccc3Br)n2)cc1 [LVS-040]

Inhibition ratio (%) @10 μM (IDO1): 15.83 ± 0.18%
Compound: O=C(Nc1ccc2nsnc2c1)c1ccc(F)cc1 [LVS-006]

IC50 (IDO1): 49.3 ± 10 µM
Compound: N#Cc1cc2c(nc1SCC(=O)Nc1ccc(F)cc1)CCCC2 [LVS-044]

More lines, now with the values behind:

Compound: N#Cc1ncccc1SCC(=O)Nc1ccc(F)cc1 [LBJ-06, 2-((2-Cyanopyridin-3-yl)thio)-N-(4-fluorophenyl)acetamide]
melting point: 211 to 213 °C

Compound: O=C1CC(c2c[nH]c3ccc(F)cc23)C(=O)N1 (stereo not shown) [Compound 4]
IC50 (SKOV3): 0.07 µM

Compound: N#Cc1ccc(C(F)(F)F)nc1SCC(=O)Nc1ccccc1 [LBJ-11, 2-((3-Cyano-6-(trifluoromethyl)pyridin-2-yl)thio)-N-phenylacetamide]
IC50 (IDO1): 9.61 ± 0.71 µM
melting point: 230 to 233 °C

Compound: N#Cc1ccncc1SCC(=O)Nc1ccc(F)cc1 [LBJ-04, 2-((4-Cyanopyridin-3-yl)thio)-N-(4-fluorophenyl)acetamide]
IC50 (IDO1): 43.6 ± 0.85 µM
melting point: 206 to 209 °C

Compound: Cc1ccc(NC(=O)CSc2nc(C(F)(F)F)ccc2C#N)cc1 [LBJ-12, 2-((3-Cyano-6-(trifluoromethyl)pyridin-2-yl)thio)-N-(p-tolyl)acetamide]
IC50 (IDO1): 17.9 ± 1.28 µM
melting point: 212 to 214 °C

Compound: NS(=O)(=O)NCCNc1nonc1C(=NO)Nc1ccc(F)c(Br)c1 [Compound 3]
IC50 (HeLa): 0.0071 µM

Compound: Cn1cc(C[C@@H](N)C(=O)O)c2ccccc21 [Compound 1, 1-methyl-D-tryptophan]
IC50 (HeLa): 1500 µM

Compound: N#Cc1ccc(C(F)(F)F)nc1SCC(=O)Nc1ccc(F)cc1 [LBJ-08, 2-((3-Cyano-6-(trifluoromethyl)pyridin-2-yl)thio)-N-(4-fluorophenyl)acetamide]
IC50 (IDO1): 1.87 ± 0.83 µM
melting point: 201 to 204 °C

Compound: Cc1ccc(C#N)c(SCC(=O)Nc2ccc(F)cc2)n1 [LBJ-07, 2-((3-Cyano-6-methylpyridin-2-yl)thio)-N-(4-fluorophenyl)acetamide]
IC50 (IDO1): 20.6 ± 1.12 µM
melting point: 238 to 240 °C

Compound: 2-((3-Cyano-6-(trifluoromethyl)pyridin-2-yl)thio)-N-(p-tolyl)acetamide [LBJ-13]
IC50 (IDO1): 23.6 ± 2.11 µM

Compound: N#Cc1ccc(C(F)(F)F)nc1SCC(=O)Nc1ccccc1F [LBJ-09, 2-((3-Cyano-6-(trifluoromethyl)pyridin-2-yl)thio)-N-(2-fluorophenyl)acetamide]
IC50 (IDO1): 5.81 ± 1.2 µM
melting point: 208 to 211 °C

Compound: O=C(CSc1cccc(C(F)(F)F)n1)Nc1ccc(F)c(Cl)c1 [LBJ-14, N-(3-Chloro-4-fluorophenyl)-2-((6-(trifluoromethyl)pyridin-2-yl)thio)acetamide]
IC50 (IDO1): 35.7 ± 1.25 µM
melting point: 86 to 88 °C

Compound: N#Cc1cnccc1SCC(=O)Nc1ccc(F)cc1 [LBJ-05, 2-((3-Cyanopyridin-4-yl)thio)-N-(4-fluorophenyl)acetamide]
IC50 (IDO1): 18 ± 0.13 µM
melting point: 232 to 234 °C

Compound: N#Cc1ccccc1SCC(=O)Nc1ccc(F)cc1 [LBJ-02, 2-((2-Cyanophenyl)thio)-N-(4-fluorophenyl)acetamide]
melting point: 215 to 217 °C

Compound: C[C@@H](C(=O)Nc1ccc(Cl)cc1)C1CCC(c2ccnc3ccc(F)cc23)CC1 (stereo partly shown) [Compound 5]
IC50 (SKOV3): 0.0034 µM

Compound: N#Cc1cc2c(nc1SCC(=O)Nc1cc(Cl)cc(Cl)c1)C1CCN2CC1 [LVS-053]
Enzymatic assay IC50 (hIDO1) (IDO1): Not Converged

Compound: N#Cc1cccnc1SCC(=O)Nc1ccc(F)cc1 [LBJ-03, 2-((3-Cyanopyridin-2-yl)thio)-N-(4-fluorophenyl)acetamide]
IC50 (IDO1): 9.14 ± 0.38 µM
solubility [1]: 75 µg/mL (≈ 261 µM)
melting point: 198 to 201 °C

Compound: N#Cc1cccnc1OCC(=O)Nc1ccc(F)cc1 [LBJ-01, 2-((3-Cyanopyridin-2-yl)oxy)-N-(4-fluorophenyl)acetamide]
IC50 (IDO1): 19.5 ± 0.28 µM
melting point: 234 to 236 °C

Compound: 4-amino-1,2,5-oxadiazole-3-carboximidamide [Compound 6]
IC50 (HeLa): 1 µM
